{"source": "patent US6964783B1", "about": "“Non-solid composition for local application” (Naturveda, priority 1999, dated 2005)", "tested_on": "0.4×0.4 cm wound", "assay": "Wound healing in shaved rats after local application", "type": "in vivo", "conditions": "0.2 ml applied on wound", "procedure": "30 rats (IFFA-CREDO SPF weighing 200+/−20 g) were shaved (3×3 cm) on the right side of the back. A 0.4×0.4 cm wound was produced at the centre of the shaved area. 30 minutes after producing the small wound, the coagulated blood was removed and 0.2 ml of glycerine containing 3% Alchemilla vulgaris (preparation according to example 4) or 0.2 ml of pure glycerine (controls) were applied on ten animals. The ten other control rats received 0.2 ml of distilled water. The complete healing time and the healing index were determined each day for 10 days. The healing time was reduced by 48% with the treatment based on glycerine containing 3% Alchemilla vulgaris, with a healing index of 2.1 in the treated lot, compared to an index of 3.3 obtained with the control lot.\nWith glycerine alone, the healing time was reduced by 26% with a healing index of 2.7.", "data": [{"molecule": "OCC(O)CO", "note": "[glycerine alone, glycerine]", "values": [{"measurement": "healing index", "setting": "determined each day for 10 days, control lot 3.3", "result": 2.7}, {"measurement": "healing time reduced by", "setting": "followed each day for 10 days, versus control lot", "result": 26, "unit": "%"}]}]}
